For 34 molecules, IC50 results are on record in patent publication US9493444B2 (Merck Patent GmbH, priority 2012, dated 2016).

Bounds are passed on as bounds.

For the experiment, the system named is Wnt pathway (TCF-dependent transcription in HEK293 luciferase reporter cell line with ER-DSH construct). The experiment is described as follows: Cellular assay for Wnt pathway activity (luciferase reporter). Type of experiment: cell-based. The note with it: Homo sapiens; Wnt pathway inhibition, HEK293 luciferase reporter cells (ER-DSH, TCF promoter), 24 hours incubation, estrogen-induced. Summed up:
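Compounds (30 μM down to 1 nM) were incubated 24 h on cells induced for TCF-dependent transcription with estrogen. Luciferase activity was read by luminescence, normalized to untreated vehicle control, and fitted for IC50.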
The term IC50 denotes the point on the concentration scale where inhibition reaches its midpoint. Turning to `CC(=O)N(C)CCN(C)c1cncc(Oc2ccc3[nH]c(=O)oc3c2)n1` [Compound 154, N-Methyl-N-(2-{methyl-[6-(2-oxo-2,3-dihydro-benzooxazol-6-yloxy)-pyrazin-2-yl]-amino}-ethyl)-acetamide], the IC50 was 1000 to 10000 nM.
Under `CC(=O)Oc1cnc(-c2ccc(Oc3cncc(N(C)CCN(C)C(C)=O)n3)cc2)nc1` [Compound 155, Acetic acid 2-[4-(6-{[2-(acetyl-methyl-amino)-ethyl]-methyl-amino}-pyrazin-2-yloxy)-phenyl]-pyrimidin-5-yl ester] stands 1000 to 10000 nM.
The same measure for `CN(CCC(N)=O)c1cncc(Oc2ccc(F)cc2)n1` [Compound 156, 3-{[6-(4-Fluoro-phenoxy)-pyrazin-2-yl]-methyl-amino}-propion-amide]: 1000 to 10000 nM; for `CC(=O)N(C)CCN(C)c1cncc(Oc2ccc(C(=O)c3ccco3)cc2)n1` [Compound 157, N-[2-({6-[4-(Furan-2-carbonyl)-phenoxy]-pyrazin-2-yl}-methyl-amino)-ethyl]-N-methyl-acetamide]: less than 200 nM; for `CC(=O)N(C)CCN(C)c1cncc(Oc2ccc(-c3nccs3)cc2)n1` [Compound 158, N-Methyl-N-(2-{methyl-[6-(4-thiazol-2-yl-phenoxy)-pyrazin-2-yl]-amino}-ethyl)-acetamide]: less than 200 nM.
Under `CC(=O)N(C)CCN(C)c1cncc(Oc2ccc(Cc3ncc(C(F)(F)F)cc3Cl)cc2)n1` [Compound 159, N-[2-({6-[4-(3-Chloro-5-trifluoro-methyl-pyridin-2-ylmethyl)-phenoxy]-pyrazin-2-yl}-methyl-amino)-ethyl]-N-methyl-acetamide] stands 200 to 1000 nM; under `CC(=O)N(C)CCN(C)c1cncc(Oc2ccc(-c3cccc(C)n3)cc2)n1` [Compound 160, N-Methyl-N-[2-(methyl-{6-[4-(6-methyl-pyridin-2-yl)-phenoxy]-pyrazin-2-yl}-amino)-ethyl]-acetamide], less than 200 nM.
As for `CC(=O)N(C)CCN(C)c1cncc(Oc2ccc(-c3ncccn3)cc2)n1` [Compound 161, N-Methyl-N-(2-{methyl-[6-(4-pyrimidin-2-yl-phenoxy)-pyrazin-2-yl]-amino}-ethyl)-acetamide], the IC50 was 200 to 1000 nM.
The same measure for `CC(=O)N(C)CCN(C)c1cncc(Oc2ccc(-c3ccc(C(F)(F)F)cn3)cc2)n1` [Compound 162, N-Methyl-N-[2-(methyl-{6-[4-(5-trifluoro-methyl-pyridin-2-yl)-phenoxy]-pyrazin-2-yl}-amino)-ethyl]-acetamide]: 200 to 1000 nM; for `COc1ccc(-c2ccc(Oc3cncc(N(C)CCN(C)C(C)=O)n3)cc2)nc1` [Compound 163, N-[2-({6-[4-(5-Methoxy-pyridin-2-yl)-phenoxy]-pyrazin-2-yl}-methyl-amino)-ethyl]-N-methyl-acetamide]: less than 200 nM.
Under `CC(=O)N(C)CCN(C)c1cncc(Oc2ccc(-c3ncccc3N3CCOCC3)cc2)n1` [Compound 164, N-Methyl-N-[2-(methyl-{6-[4-(3-morpholin-4-yl-pyridin-2-yl)-phenoxy]-pyrazin-2-yl}-amino)-ethyl]-acetamide] stands 1000 to 10000 nM; under `CC(=O)N(C)CCN(C)c1cncc(Oc2ccc(-c3ncc(O)cn3)cc2)n1` [Compound 165, N-[2-({6-[4-(5-Hydroxy-pyrimidin-2-yl)-phenoxy]-pyrazin-2-yl}-methyl-amino)-ethyl]-N-methyl-acetamide], 1000 to 10000 nM.
`CC(=O)N(C)CCN(C)c1cncc(Oc2ccc(-c3cc4ccccc4cn3)cc2)n1` [Compound 166, N-(2-{[6-(4-Isoquinolin-3-yl-phenoxy)-pyrazin-2-yl]-methyl-amino}-ethyl)-N-methyl-acetamide] had an IC50 of 200 to 1000 nM.
Under `CCc1ccnc(-c2ccc(Oc3cncc(N(C)CCN(C)C(C)=O)n3)cc2)c1` [Compound 167, N-[2-({6-[4-(4-Ethyl-pyridin-2-yl)-phenoxy]-pyrazin-2-yl}-methyl-amino)-ethyl]-N-methyl-acetamide] stands 200 to 1000 nM; under `CC(=O)N(CCN(c1cncc(Oc2ccc(F)cc2)n1)C(C)C)C(C)C` [Compound 168, N-(2-{[6-(4-Fluoro-phenoxy)pyrazin-2-yl]-isopropyl-amino}-ethyl)-N-isopropyl-acetamide], 200 to 1000 nM.
In the case of `CC(=O)N(CCSc1cncc(Oc2ccc(-c3ccc(C)cn3)cc2)n1)C(C)C` [Compound 169, N-Isopropyl-N-(2-{6-[4-(5-methyl-pyridin-2-yl)-phenoxy]-pyrazin-2-ylsulfanyl}-ethyl)-acetamide], the IC50 is less than 200 nM.
The same measure for `CC(=O)N(C)CCN(C)c1cncc(Oc2ccc(-c3cccc(C(N)=O)n3)cc2)n1` [Compound 170, 6-[4-(6-{[2-(Acetyl-methyl-amino)-ethyl]-methyl-amino}-pyrazin-2-yloxy)-phenyl]-pyridine-2-carboxylic acid amide]: less than 200 nM.
As for `CC(=O)Nc1cccc(-c2ccc(Oc3cncc(N(C)CCN(C)C(C)=O)n3)cc2)n1` [Compound 171, N-[2-({6-[4-(6-Acetylamino-pyridin-2-yl)-phenoxy]-pyrazin-2-yl}-methyl-amino)-ethyl]-N-methyl-acetamide], the IC50 is less than 200 nM.
On to `CC(=O)N(C)CCN(C)c1cncc(Oc2ccc(-c3cc(N)ccn3)cc2)n1` [Compound 172, N-[2-({6-[4-(4-Amino-pyridin-2-yl)-phenoxy]-pyrazin-2-yl}-methyl-amino)-ethyl]-N-methyl-acetamide], for which the IC50 lay within 200 to 1000 nM.
Molecule `CC(=O)N(C)CCN(C)c1cncc(Oc2ccc(-c3cc(N4CCN(C)CC4)ccn3)cc2)n1` [Compound 173, N-Methyl-N-{2-[methyl-(6-{4-[4-(4-methyl-piperazin-1-yl)-pyridin-2-yl]-phenoxy}-pyrazin-2-yl)-amino]-ethyl}-acetamide] displayed an IC50 of 1000 to 10000 nM.
Under `CC(=O)N(C)CCN(C)c1cncc(Oc2ccc(-c3cc(C)cc[n+]3[O-])cc2)n1` [Compound 174, N-Methyl-N-[2-(methyl-{6-[4-(4-methyl-1-oxy-pyridin-2-yl)-phenoxy]-pyrazin-2-yl}-amino)-ethyl]-acetamide] stands 200 to 1000 nM; under `CC(=O)N(C)CCN(C)c1cncc(Oc2ccc(-c3ccc(N4CCOCC4)nc3)cc2)n1` [Compound 175, N-Methyl-N-[2-(methyl-{6-[4-(6-morpholin-4-yl-pyridin-3-yl)-phenoxy]-pyrazin-2-yl}-amino)-ethyl]-acetamide], less than 200 nM.
`CC(=O)OCc1ccc(Oc2cncc(N(C)CCN(C)C(C)=O)n2)cc1` [Compound 176, Acetic acid 4-(6-{[2-(acetyl-methyl-amino)-ethyl]-methyl-amino}-pyrazin-2-yloxy)-benzyl ester] showed an IC50 of less than 200 nM.
As to `CC(=O)N(C)CCN(C)c1cncc(Oc2ccc(-c3cccnc3N)cc2)n1` [Compound 177, N-[2-({6-[4-(2-Amino-pyridin-3-yl)-phenoxy]-pyrazin-2-yl}-methyl-amino)-ethyl]-N-methyl-acetamide], the IC50 was less than 200 nM.
`CC(=O)N(C)CCN(C)c1cncc(Oc2ccc(C3CCC(=O)CC3)cc2)n1` [Compound 178, N-Methyl-N-[2-(methyl-{6-[4-(4-oxo-cyclohexyl)-phenoxy]-pyrazin-2-yl}-amino)-ethyl]-acetamide] came in with an IC50 of less than 200 nM.
Under `CC(=O)N(C)CCN(C)c1cncc(Oc2ccc(C3CCC(C)CO3)cc2)n1` (stereo not shown) [Compound 179, N-Methyl-N-[2-(methyl-{6-[4-(5-methyl-tetrahydro-pyran-2-yl)-phenoxy]-pyrazin-2-yl}-amino)-ethyl]-acetamide] stands less than 200 nM; under `CCOc1ccc(-c2ccc(Oc3cncc(N(C)CCN(C)C(C)=O)n3)cc2)c(F)c1F` [Compound 180, N-(2-{[6-(4′-Ethoxy-2′,3′-difluoro-biphenyl-4-yloxy)-pyrazin-2-yl]-methyl-amino}-ethyl)-N-methyl-acetamide], 200 to 1000 nM; under `CC(=O)N(C)CCN(C)c1cncc(Oc2ccc(CO)cc2)n1` [Compound 181, N-(2-{[6-(4-Hydroxymethyl-phenoxy)-pyrazin-2-yl]-methyl-amino}-ethyl)-N-methyl-acetamide], less than 200 nM.
For `CC(=O)Nc1ccc(-c2ccc(Oc3cncc(N(C)CCN(C)C(C)=O)n3)cc2)cn1` [Compound 182, N-{5-[4-(6-{[2-(Acetyl-methyl-amino)-ethyl]-methyl-amino}-pyrazin-2-yloxy)-phenyl]-pyridin-2-yl}-acetamide], the IC50 was less than 200 nM.
Under `CC(=O)N(C)CCN(C)c1cncc(Oc2ccc(-c3ccc(C)nc3)cc2)n1` [Compound 183, N-Methyl-N-[2-(methyl-{6-[4-(6-methyl-pyridin-3-yl)-phenoxy]-pyrazin-2-yl}-amino)-ethyl]-acetamide] stands less than 200 nM; under `COc1ccc(-c2ccc(Oc3cncc(N(C)CCN(C)C(C)=O)n3)cc2)cn1` [Compound 184, N-[2-({6-[4-(6-Methoxy-pyridin-3-yl)-phenoxy]-pyrazin-2-yl}-methyl-amino)-ethyl]-N-methyl-acetamide], less than 200 nM; under `CC(=O)N(C)CCN(C)c1cncc(Oc2ccc(-c3cnc(N)cn3)cc2)n1` [Compound 185, N-[2-({6-[4-(5-Amino-pyrazin-2-yl)-phenoxy]-pyrazin-2-yl}-methyl-amino)-ethyl]-N-methyl-acetamide], less than 200 nM.
`CC(=O)N(C)CCN(C)c1cncc(Oc2ccc(-c3cnc4sc(=O)[nH]c4c3)cc2)n1` [Compound 186, N-Methyl-N-[2-(methyl-{6-[4-(2-oxo-1,2-dihydro-thiazolo[5,4-b]pyridin-6-yl)-phenoxy]-pyrazin-2-yl}-amino)-ethyl]-acetamide]: the IC50 was less than 200 nM.
`CCOC(=O)c1ncoc1-c1ccc(Oc2cncc(N(C)CCN(C)C(C)=O)n2)cc1` [Compound 187, 5-[4-(6-{[2-(Acetyl-methyl-amino)-ethyl]-methyl-amino}-pyrazin-2-yloxy)-phenyl]-oxazole-4-carboxylic acid ethyl ester] gave an IC50 of 200 to 1000 nM.
